# Assay results: PubChem BioAssay (NCI)
# Values joined by “and” are separate entries in the source; they are usually repeats but may differ in a detail not shown here. Equal entries are not always repeated.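 In this assay, cells in 96-well plates receive the compound at five concentrations for 48 hours. Endpoints are linearly interpolated between the surrounding concentrations. At the GI50, growth is halved. TGI: total growth inhibition.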
# Experiments:
# Experiment in all cases: NCI tumour cell line growth inhibition, 48 h
# [1] = system: 786-0 renal
# [2] = system: KM12 colon
# [3] = system: U251 CNS
# [4] = system: TK-10 renal
# [5] = system: SNB-19 CNS
# [6] = system: HS 578T breast
# [7] = system: A498 renal
# [8] = system: MCF7 breast
# [9] = system: HOP-92 NSCLC
# [10] = system: SF-539 CNS
SMILES,GI50 [1],TGI [1],GI50 [2] [µM],TGI [2] [µM],GI50 [3],TGI [3],GI50 [4],TGI [4],GI50 [5],TGI [5],GI50 [6] [µM],TGI [6],GI50 [7] [µM],TGI [7],GI50 [8],TGI [8],TGI [9],GI50 [10],TGI [10],GI50 [9]
COc1ccc(C2=NN(C(=O)c3cc(OC)c(OC)c(OC)c3)C(c3ccc(Cl)cc3)C2)cc1OC (configuration not stated),2.14 µM,27.5 µM,1.77,> 100,3.67 µM,42.2 µM,3.63 µM,> 81.6 µM,4.15 µM,44 µM,3.59,> 42.4 µM,0.608,8.3 µM,0.398 µM,14.7 µM,5.41 µM,2.06 µM,> 82.8 µM,
COC(=O)[C@]12CC[C@@H](C)[C@H](C)[C@@H]1C1=CC[C@@H]3[C@@]4(C)C(C=O)=C[C@@](C)(COC(=O)c5ccco5)[C@@H]4C(=O)C[C@@]3(C)[C@]1(C)CC2,7.81 µM,> 100 µM,4.26,> 100,4.83 µM,> 100 µM,11.7 µM,> 100 µM,6.15 µM,> 100 µM,9.68,> 100 µM,12.1,94.7 µM,4.07 µM,44.2 µM,91 µM,23 µM,> 100 µM,1.37 µM
C/C(=C\C1=C(Cl)C(=O)c2ccccc2C1=O)C(=O)O,17.6 µM,32.3 µM,18.1,33.7,15.8 µM,29.4 µM,23.3 µM,38.1 µM,17.7 µM,31.7 µM,30.3,69.3 µM,21.9,36.3 µM,17.6 µM,43.3 µM,33 µM,17.7 µM,31.9 µM,18.6 µM
CCOc1cc2c(cc1O)/C(=N\O)C[C@@H]1[C@@H]2CC[C@]2(C)[C@@H](O)CC[C@@H]12,0.015 µM,> 100 µM,0.0797,,0.0324 µM,> 100 µM,,> 100 µM,0.00629 µM,,0.0271,> 82.9 µM,0.604,> 100 µM,0.0264 µM,,> 100 µM,0.0269 µM,,14.8 µM
CC(=O)c1cc2c(cc1Nc1c3ccccc3nc3occ(Cl)c13)OCO2,0.291 µM,> 44.3 µM,0.0556,0.494,0.35 µM,> 100 µM,0.409 µM,> 100 µM,0.601 µM,> 100 µM,0.109,> 69.6 µM,0.105,0.373 µM,0.0939 µM,> 100 µM,> 100 µM,0.0302 µM,0.0998 µM,12.7 µM
O=C([O][Hg][CH2]C1COC([CH2][Hg][O]C(=O)c2ccccc2)CO1)c1ccccc1 (configuration not stated),2.88 µM and 1.47 µM,8.5 µM and 2.99 µM,31.1,46,4.46 µM and 13.5 µM,10.8 µM and 27 µM,10.5 µM and 1.85 µM,19 µM and 3.33 µM,19.6 µM and 6.18 µM,43.2 µM and 21.9 µM,21.8,82.6 µM,18.8,33.1 µM,3.69 µM and 1.16 µM,19.8 µM and 2.87 µM,4.16 µM and 3.37 µM,15.8 µM and 14.4 µM,29.7 µM and 30.5 µM,1.87 µM and 1.94 µM
CCN1C(NN)=NS(=O)(=O)c2ccccc21,,> 100 µM,,> 100,,> 100 µM,,> 100 µM,,> 100 µM,,> 100 µM,,> 100 µM,,> 100 µM,> 100 µM,,> 100 µM,
CN(C)c1ncnc2c1nnn2C1OC(CO)C(O)C1O (configuration not stated),0.226 µM,> 100 µM,1.07,32.8,1.6 µM,> 100 µM,0.25 µM,> 100 µM,1.06 µM,> 100 µM,0.632,> 100 µM,0.442,> 100 µM,0.216 µM,> 23.4 µM,1.23 µM,0.503 µM,> 90.6 µM,0.186 µM
CN(C)c1ccc(/C=C2\N=C(c3ccc([N+](=O)[O-])cc3)OC2=O)cc1,,> 100 µM,,> 100,,> 100 µM,,> 100 µM,,> 100 µM,,> 100 µM,,> 100 µM,,> 100 µM,97 µM,,> 100 µM,
CCOC(=O)c1c2c(n(Cc3ccccc3)c1C)-c1ccccc1C(=O)C2=O,6.35 µM,19.3 µM,19.8,65.3,8.75 µM,20.8 µM,16.3 µM,34.6 µM,15.4 µM,29.4 µM,2.93,12.4 µM,24.6,60 µM,5.23 µM,20.9 µM,21.6 µM,18.7 µM,34.4 µM,6.54 µM
O=C(CF)N(O)c1ccc(/C=C/c2ccccc2)cc1,1.98 µM,7.14 µM,16.5,> 100,1.82 µM,> 60 µM,3.38 µM,27.5 µM,8.65 µM,> 100 µM,24.1,> 91.5 µM,0.694,2.27 µM,0.304 µM,> 100 µM,35.7 µM,8.17 µM,52.9 µM,3.97 µM
O=C1c2ccccc2C(=Cc2ccccc2)c2ccccc21,2.7 µM,6.94 µM,1.8,9.81,2.97 µM,9.23 µM,3.03 µM,10.1 µM,3.61 µM,16.9 µM,3.9,> 100 µM,2.3,9.52 µM,1.44 µM,12 µM,5.17 µM,3.57 µM,11.9 µM,1.45 µM
Cc1ccc(Nc2n[nH]c(=S)s2)cc1,,> 100 µM,,> 100,,> 100 µM,,> 100 µM,,> 100 µM,,> 100 µM,,> 100 µM,,> 100 µM,> 100 µM,,> 100 µM,
CN1CCN(Cc2ccc(NC(=O)c3cncc(C#Cc4cncc5ncccc45)c3)cc2C(F)(F)F)CC1,9.81 µM,22.2 µM,0.0444,11.7,9.49 µM,21.8 µM,4.18 µM,15.4 µM,10.5 µM,22.3 µM,1.36,7.93 µM,0.323,3.43 µM,3.28 µM,15.7 µM,4.92 µM,0.829 µM,2.96 µM,1.16 µM
O=C1C2=Nc3ccccc3C(O)N2c2ccccc21 (configuration not stated),,> 100 µM,,> 100,,> 100 µM,,> 100 µM,,> 100 µM,,> 100 µM,,90.9 µM,,> 100 µM,> 100 µM,,> 100 µM,
C/C1=C/C2=CC(C)C[C@@H]2C(=O)[C@]2(C)C(=O)CC(C)(C)[C@H]2CC1=O (some centres not stated),,> 50 µM,,> 50,,> 50 µM,,> 50 µM,,> 50 µM,,> 50 µM,,> 50 µM,,> 50 µM,> 50 µM,,> 50 µM,
CC(C)(C)c1[nH]cnc1/C=c1\[nH]c(=O)/c(=C/c2ccccc2)[nH]c1=O,< 0.01 µM,40.7 µM,< 0.01,7.44,< 0.01 µM,43.9 µM,14.1 µM,> 100 µM,< 0.01 µM,> 100 µM,< 0.01,> 71.8 µM,< 0.01,0.51 µM,0.0203 µM,17 µM,9.11 µM,< 0.01 µM,0.0321 µM,< 0.0118 µM
CC(=O)OCC(=O)O[C@@H]1C[C@]2(C(C)C)O[C@@]1(C)[C@@H]1CC[C@@H](C)[C@H]1[C@@H]2OC(=O)/C=C/c1ccccc1,0.931 µM,18.9 µM,26.7,> 100,16.7 µM,50.3 µM,15.5 µM,39.7 µM,30.2 µM,> 100 µM,< 0.0116,0.0363 µM,< 0.0399,0.472 µM,22.6 µM,> 100 µM,22.9 µM,28.2 µM,> 100 µM,8.81 µM
Cc1noc(C)c1-c1cc(O)cc(C(O)c2ccccc2)c1 (configuration not stated),27.1 µM,> 100 µM,8.2,> 100,15 µM,> 100 µM,3.99 µM,> 100 µM,5.69 µM,> 100 µM,1.93,90.7 µM,2.6,20.3 µM,1.7 µM,> 100 µM,72.9 µM,4.56 µM,> 100 µM,1.02 µM
CC/C=C\C/C=C\C[C@H](O)C/C=C1/C(=O)C=C[C@@H]1C/C=C\CCCC(=O)O,2.47 µM,5.83 µM,3.06,11.5,3.54 µM,12.2 µM,8.06 µM,21.1 µM,8.75 µM,24.3 µM,28.4,> 100 µM,16,31.1 µM,2.96 µM,18.5 µM,20.4 µM,3.85 µM,15.2 µM,7.26 µM
O=C(CN1CCN(c2ccc(Cl)cc2)CC1)N1CCN(c2nnc(-c3ccc(Cl)cc3)c(-c3ccc(Cl)cc3)n2)CC1,22 µM,> 100 µM,9.45,> 100,41.7 µM,> 100 µM,26.2 µM,> 100 µM,19.1 µM,63.5 µM,24,> 100 µM,43.1,> 100 µM,8.9 µM,> 100 µM,60.4 µM,19.6 µM,69.9 µM,22.4 µM
COc1ccc2c(c1)C(=O)c1c-2c(Nc2ccc(C(C)=O)cc2)nc2ccccc12,12.3 µM,32.2 µM,> 100,> 100,13.5 µM,40.6 µM,40.1 µM,> 100 µM,14.5 µM,37.3 µM,8.39,> 100 µM,35.2,> 100 µM,64.7 µM,> 100 µM,73.7 µM,15.5 µM,44.5 µM,24 µM
O=c1cc(N2CCNCC2)oc2c(-c3ccccc3)cccc12,33.7 µM,> 100 µM,43.9,> 100,35.4 µM,> 100 µM,27.9 µM,> 100 µM,34.5 µM,> 100 µM,9.75,> 100 µM,25,74.8 µM,40.7 µM,> 100 µM,> 100 µM,68 µM,> 100 µM,17.3 µM
COc1ccc2c(c1)C(=O)C(=O)c1cc(O)c(OC)c(OC)c1-2,1.85 µM,1.72 µM and 3.26 µM,,3.28,1.78 µM,1.64 µM and 3.16 µM,1.69 µM,1.77 µM and 3.05 µM,1.85 µM,2.38 µM and 3.28 µM,2.79,2.78 µM and 8.57 µM,5.07,10.5 µM and 12.9 µM,1.96 µM,1.74 µM and 3.59 µM,1.79 µM and 3.19 µM,,3.35 µM,1.7 µM
O=C(O)CCC(=O)c1ccc2ccc3cccc4ccc1c2c34,,> 100 µM,,> 100,,> 100 µM,,> 100 µM,,> 100 µM,,> 100 µM,,> 100 µM,,> 100 µM,> 100 µM,,68 µM,
O=P(NC12CC3CC(CC(C3)C1)C2)(N1CC1)N1CC1,,> 100 µM,,> 100,,> 100 µM,,> 100 µM,,> 100 µM,,> 100 µM,,> 100 µM,,> 100 µM,> 100 µM,,75.5 µM,
C=CC(C)(O)/C=C/C=C(\C)C(CC1OC1(C)C)OC(=O)/C(C)=C\C (configuration not stated),,> 100 µM,,> 100,,> 100 µM,,> 100 µM,,> 100 µM,,> 100 µM,,> 100 µM,,> 100 µM,> 100 µM,,> 100 µM,
Cc1cc(C2=NNC(=O)Cc3cc4c(cc32)OCCO4)cc(C)c1N,5.27 µM,> 100 µM,0.818,> 100,3.22 µM,> 100 µM,8.96 µM,> 100 µM,4.31 µM,> 100 µM,3.05,> 100 µM,3.31,99.4 µM,1.13 µM,> 100 µM,> 100 µM,2.73 µM,8.91 µM,3.54 µM
